Here are results for 17 molecules from patent US5621133A (priority 1995, dated 1997).

The structures appear in SMILES notation. Structures can show the parent of a compound that is named as a salt. Where two headings read alike, the source gives them in different places.

For assay [1], the system named is striatal dopamine receptors. Put plainly: Rotation behavior assay of in vivo activity (6-hydroxydopamine lesioned rat rotational model). The note with it: for ED50 s.c. (rotation behavior): injected subcutaneously.
For a further assay, the target named is dopamine D-2 receptor (Rattus norvegicus, UniProt P61169). The assay is described as follows: biochemical. To be noted: rat caudate, [125I]-p-aminophenylethyl spiroperidol; read-out: D-2 Ki. It is filed as binding. The procedure: Homogenized rat caudate was the source of the D-2 receptors. […] The molar affinity of the compound for the receptor binding site was calculated by the same method used for the D-1 receptor assay, assuming a competitive interaction between the compound and the radiolabeled ligand.

Assay [2] addresses T1, dopamine D-1 receptor (Rattus norvegicus, UniProt P18901). Put plainly: biochemical. The note with it: D-1 Ki, rat caudate, [125I]SCH-23982.
From the text: (§1) The compounds compete with the radiolabeled ligand for occupancy of the receptors and the molar potency of each compound was quantified.
(§2) The Ki values are inversely proportional to the affinity of the compound for the receptor.
In assay [3] the test system is dopamine D-1 receptor. To be noted: for Intrinsic Activity (adenylate cyclase assay): dopamine = 100, goldfish retina or rat striatum; for EC50: read-out: EC50 (agonist activity in adenylate cyclase assay), tissue from goldfish retina or rat striatum.
Method: In order to determine agonist activity, cell-free tissue homogenates are incubated in an ionic buffer solution containing ATP and the compound being evaluated. The tissue was obtained from either goldfish retina or rat striatum.
In another assay the test system is anesthetized dogs. Put plainly: Cardiovascular pharmacology - hemodynamic studies in anesthetized dogs. It is filed as in vivo, dog (Beagle). To be noted: cumulative intraaortic infusion above renal arteries; dose ranges (g/kg/min): 2A 3-10, 3 1-10, 35 1-3, 36 1-10, 37 1-30. As to the method: Male Beagle dogs were anesthetized with pentobarbital (30 mg/kg. i.v.) and maintained with i.v. infusion (Abbott/Shaw Life Care Pump, Model II/D) to maintain stable cardiovascular function. The dogs were […] with a cuffed endotracheal tube and ventilated with room air by means of a positive pressure respiratory pump. Expired respiratory CO2 was monitored with a Beckman LB-2 gas analyzer and maintained at 5% by appropriate pump adjustments. The dogs were maintained at a body temperature of 37.5°±1.0° C. with a thermostatically controlled animal table. Polyethylene catheters were placed in the abdominal aorta via the femoral and carotid arteries for blood pressure and left ventricular pressure recordings. A Swan-Ganz thermodilution catheter with a 15 cm proximal port was placed in the jugular vein for central venous and pulmonary arterial recordings and for determination of cardiac output (American Edwards Cardiac Output Computer, Model COM-1). Heart rate and electrocardiogram (ECG) recordings were made from a Lead II ECG connection. […] A calibrated electromagnetic flow probe (Carolina Medical Electronics) was positioned around the renal artery. The abdominal cavity is closed with wound clips. Recordings were made on a Grass polygraph. An additional small polyethylene catheter was inserted into a branch of the left femoral artery and the tip positioned in the aorta above the renal arteries. […] A thirty-fold dose-response-curve was administered by varying flow rate from 0.01 to 0.30 mL/minute.

For assay [4], the target named is T1, dopamine D-1 receptor. The note with it: read-out: D-1 Ki; rat caudate, [125I]SCH-23982.
From the text: as §1, §2
The test system of assay [5] is spontaneously hypertensive rats. The assay is described as follows: Diuretic effects in spontaneously hypertensive rats. It is filed as in vivo, rat. To be noted: 3.0 mg/kg i.v., 2 hour interval. As to the method:
Male, spontaneously hypertensive rats (SHR), weighing 285-350 grams were used to evaluate the diuretic effects of one of the compounds of the invention. Following an overnight fasting period with free access to drinking water, the rats received an intragastric fluid load of 0.9 saline at 5% of their body weight. Simultaneously with the load, the rats were dosed with a test compound or vehicle and placed individually in stainless steel metabolic cages where they had access to drinking water throughout the duration of the experiment. For intravenous administration, the rats were instrumented with indwelling cannulas placed into the jugular vein at least one week prior to the experiment.
Urine was collected at 2 and 4 hours following drug administration. The volume of excreted urine at each collection interval was measured accurately and the samples were analyzed for sodium, potassium and chloride ions. Sodium and potassium were measured using a Digital Readout Flame Photometer (Instrumentation Labs). Chloride was measured by the method of Shales and Shales, J Biol Chem 140:879 (1941). The statistical analysis of the data was computed by an off-line computer program. In this program, a comparison test is made between the vehicle (control) group and each treatment group for all variables at each time interval of the experiment. The test of statistical significance is based on the Student's t-test, where the calculated t is a measure of the probability density function.
A control group of six rats received 0.1 mg/kg of saline solution acidified by ascorbic acid (0.3 mL). This solution was also the vehicle for the test compound.

A further assay relates to rats. To be noted: cited from earlier work.
The test system of another assay is Parkinson's Disease. To be noted: cited from earlier work.

The Ki is the equilibrium dissociation constant of an inhibitor or competing ligand from its target. By EC50 is commonly meant the concentration giving half of the maximal effect.

dopamine D-2 receptor, sequence (P61169 whole entry): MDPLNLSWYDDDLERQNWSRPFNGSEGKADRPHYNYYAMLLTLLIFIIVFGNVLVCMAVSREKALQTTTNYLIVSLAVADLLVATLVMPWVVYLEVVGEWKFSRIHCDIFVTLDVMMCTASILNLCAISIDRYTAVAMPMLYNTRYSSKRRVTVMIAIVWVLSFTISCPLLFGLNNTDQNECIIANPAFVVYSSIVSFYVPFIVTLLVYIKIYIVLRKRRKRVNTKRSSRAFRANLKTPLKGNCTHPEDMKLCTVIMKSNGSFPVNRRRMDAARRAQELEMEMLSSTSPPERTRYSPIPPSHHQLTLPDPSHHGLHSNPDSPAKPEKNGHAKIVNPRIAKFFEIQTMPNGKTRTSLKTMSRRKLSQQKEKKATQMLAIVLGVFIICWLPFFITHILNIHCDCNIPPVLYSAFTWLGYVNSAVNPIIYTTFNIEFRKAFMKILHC
T1 sequence (P18901 whole entry): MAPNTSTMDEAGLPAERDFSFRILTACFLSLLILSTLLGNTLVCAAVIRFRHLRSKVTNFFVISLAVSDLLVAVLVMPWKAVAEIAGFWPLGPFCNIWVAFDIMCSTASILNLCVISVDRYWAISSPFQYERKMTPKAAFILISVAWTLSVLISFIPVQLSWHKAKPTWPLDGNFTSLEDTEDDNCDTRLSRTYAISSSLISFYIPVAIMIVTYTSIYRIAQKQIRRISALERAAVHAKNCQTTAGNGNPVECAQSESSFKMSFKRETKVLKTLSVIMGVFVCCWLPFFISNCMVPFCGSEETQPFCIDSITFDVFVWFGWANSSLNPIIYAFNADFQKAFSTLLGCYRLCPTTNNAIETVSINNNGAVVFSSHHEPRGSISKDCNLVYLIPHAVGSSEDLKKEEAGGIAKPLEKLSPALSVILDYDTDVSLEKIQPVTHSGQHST

Consider `NC[C@H]1C[C@@H](c2ccccc2)Cc2c1ccc(O)c2O` (relative stereo) [Example 35, [1,3-cis]1-Aminomethyl-5,6-dihydroxy-3-phenyl-1,2,3,4-tetrahydronaphthalene Hydrobromide], for which the “ED50 oral (rotation behavior)” value in assay [1] was 21.4 µmol/kg. In addition, the Ki on dopamine D-2 receptor came to 760 nM. For the same molecule, the Ki on dopamine D-1 receptor [2] is 30 nM. Also, in the assay on dopamine D-1 receptor [3], the “Intrinsic Activity (adenylate cyclase assay)” value (“Intrinsic Activity” below) was 66 and the EC50 came out at 10 nM. Further, in the assay on anesthetized dogs, the “Max Decrease MAP (mean arterial blood pressure)” value (“Max Decrease MAP” below) is 26% and the “Max Increase RBF (renal blood flow)” value is 35%.
As to `CCCCCC(NC(=O)CCl)[C@@H]1Cc2c(ccc(O)c2O)[C@H](CN)O1` (relative stereo) [Example 165], the Ki on dopamine D-1 receptor [4] worked out at 1800 nM; at dopamine D-2 receptor, 17000 nM. Moreover, the “Intrinsic Activity” value in the assay on dopamine D-1 receptor [3] is listed as 105. Moreover, the EC50 at dopamine D-1 receptor [3] was determined as 31 nM.
Turning to `Oc1ccc2c(c1O)C[C@H](c1ccccc1)C[C@H]2[C@H]1CCCN1` (relative stereo) [Example 181, [1,3-cis]5.6-Dihydroxy-3-phenyl-1-(2'-pyrrolidinyl)-1,2,3,4-tetrahydronaph-thalene Hydrobromide], the Ki at dopamine D-1 receptor [4] worked out at 390 nM. Moreover, the Ki at dopamine D-2 receptor was found to be 4600 nM. In addition, in the assay with dopamine D-1 receptor [3], the “Intrinsic Activity” value is 65 and the EC50 is 17 nM.
As to `NC[C@@H]1C[C@H](C23CC4CC(CC(C4)C2)C3)Cc2c1ccc(O)c2O` (relative stereo) [Example 235], the Ki on dopamine D-1 receptor [4] is 550 nM; on dopamine D-2 receptor, more than 10000 nM. The “Intrinsic Activity” value with dopamine D-1 receptor [3] was determined as 83. Besides, at dopamine D-1 receptor [3], the EC50 is 300 nM.
For `C=CCNC[C@@H]1O[C@H](c2ccccc2)Cc2c1ccc(O)c2O` (stereo in doubt) [Example 130], on dopamine D-1 receptor [4], the Ki was 51 nM. For the same molecule, in [1], the “ED50 s.c. (rotation behavior)” value turned out to be 0.13 µmol/kg and the “ED50 oral (rotation behavior)” value is 8 µmol/kg. Moreover, the Ki on dopamine D-2 receptor came out at 190 nM. Moreover, in the assay with dopamine D-1 receptor [3], the “Intrinsic Activity” value was 82 and the EC50 was 170 nM.
With `Br.NCC1=CC(c2ccccc2)Cc2c1ccc(O)c2O` (stereo not drawn) [Example 2A, 1-Aminomethyl-5,6-dihydroxy-3-phenyl-3,4-dihydronaphthalene Hydrobromide], on dopamine D-2 receptor, the Ki is more than 10000 nM. The same molecule yielded a Urine potassium in [5] (control 0.29, n = 6) of 0.55 meq/kg. Further, the Urine sodium in assay [5] (control 1.60, n = 6) came to 2.35 meq/kg. Besides, in assay [5] (control 1.87, n = 6), the Urine chloride is given as 2.71 meq/kg. In assay [5] (control 13.02, n = 6), this molecule had a Urine volume of 22.57 mL/kg. Moreover, the “Intrinsic Activity” value in the assay with dopamine D-1 receptor [3] was 56. For the same molecule, in the assay on anesthetized dogs, the “Max Decrease MAP” value was found to be 32% and the “Max Increase RBF (renal blood flow)” value was determined as 27%.
Take `CC(=O)Oc1ccc2c(c1OC(C)=O)CC(c1ccccc1)C=C2CN.Cl` (stereo not drawn) [Example 3, 5,6-Bis(acetoxy)-1-aminomethyl-3-phenyl-3,4-dihydronaphthalene Hydrochloride]: the “ED50 s.c. (rotation behavior)” value in assay [1] was 0.91 µmol/kg. Moreover, in the assay with anesthetized dogs, the “Max Decrease MAP” value was determined as 8% and the “Max Increase RBF (renal blood flow)” value came out at 83%.
Turning to `CC(C)OC(=O)CCC(=O)Oc1ccc2c(c1OC(=O)CCC(=O)OC(C)C)CC(c1ccccc1)C=C2CN` (stereo not drawn) [Example 24], the Ki on dopamine D-1 receptor [4] is 900 nM. Further, the Ki at dopamine D-2 receptor is more than 10000 nM. In the assay with dopamine D-1 receptor [3], the “Intrinsic Activity” value came out at 71 and the 50% effective concentration (EC50) was determined as 500 nM.
For `Br.NCC1=CC(C2CCCCC2)Cc2c1ccc(O)c2O` (stereo not drawn) [Example 36, 1-Aminomethyl-3-cyclohexyl-5,6-dihydroxy-3,4-dihydronaphthalene Hydrobromide], in assay [1], the “ED50 s.c. (rotation behavior)” value came to 0.5 µmol/kg and the “ED50 oral (rotation behavior)” value is given as 170 µmol/kg. Besides, on dopamine D-2 receptor, the inhibition constant (Ki) was more than 10000 nM. The same molecule gave a Ki at dopamine D-1 receptor [2] of 200 nM. Further, in the assay on dopamine D-1 receptor [3], the “Intrinsic Activity” value was 57 and the concentration for a half-maximal effect (EC50) worked out at 79 nM. For the same molecule, in the assay with anesthetized dogs, the “Max Decrease MAP” value came out at 13% and the “Max Increase RBF (renal blood flow)” value was 94%.
As to `Br.NC[C@@H]1C[C@H](C2CCCCC2)Cc2c1ccc(O)c2O` [Example 37, [1R,3S]1-Aminomethyl-3-cyclohexyl-5,6-dihydroxy-1,2,3,4-tetrahydronaphthalene Hydrobromide], on dopamine D-2 receptor, the Ki is 10000 nM. Further, the Ki at dopamine D-1 receptor [2] was determined as 57 nM. Moreover, in the assay with dopamine D-1 receptor [3], the “Intrinsic Activity” value was 56 and the EC50 was 31 nM. Besides, in the assay on anesthetized dogs, the “Max Decrease MAP” value is 39% and the “Max Increase RBF (renal blood flow)” value is recorded as 48%.
For `NCC1c2ccc(O)c(O)c2CC(c2ccccc2)C1CCO` (stereo not drawn) [Example 45, [1,2-trans]1-Aminomethyl-5,6-dihydroxy-2-(2'-hydroxy-1'-ethyl)-3-phenyl-1,2,3,4-tetrahydronaphthalene Formic Acid Salt], the Ki on dopamine D-1 receptor [4] stood at 4600 nM. Further, the Ki at dopamine D-2 receptor is more than 10000 nM. Moreover, in the assay on dopamine D-1 receptor [3], the “Intrinsic Activity” value was found to be 62 and the EC50 turned out to be 60 nM.
The matching figures for `CCCNCC1=CC(c2ccccc2)Cc2c1ccc(O)c2O` (stereo not drawn) [Example 151]: 5800 nM, 2500 nM, 58 and 7000 nM.
In the case of `CCNCC1=CC(c2ccccc2)Cc2c1ccc(O)c2O` (stereo not drawn) [Example 153], the Ki was 850 nM on dopamine D-1 receptor [4] and more than 10000 nM at dopamine D-2 receptor. Moreover, the “Intrinsic Activity” value in the assay with dopamine D-1 receptor [3] is reported as 53. Besides, the EC50 at dopamine D-1 receptor [3] stood at 3100 nM.
Turning to `CN1CCC2=C(C1)c1ccc(O)c(O)c1CC2c1ccccc1` (stereo not drawn) [Example 246], the inhibition constant (Ki) on dopamine D-1 receptor [4] was 190 nM. In addition, in assay [1], the “ED50 s.c. (rotation behavior)” value is on record as 0.54 µmol/kg. In addition, the Ki at dopamine D-2 receptor was 3200 nM. Further, in the assay with dopamine D-1 receptor [3], the “Intrinsic Activity” value is 78 and the EC50 stood at 220 nM.
`CN1CCC2=C(C1)c1ccc(O)c(O)c1CC2c1ccccc1` (stereo not drawn) [Example 247]: the Ki on dopamine D-1 receptor [4] turned out to be 20 nM. In addition, the “ED50 s.c. (rotation behavior)” value in assay [1] is reported as 0.014 µmol/kg. Besides, on dopamine D-2 receptor, the inhibition constant (Ki) came out at 1800 nM. Also, in the assay on dopamine D-1 receptor [3], the “Intrinsic Activity” value is 75 and the EC50 is 30 nM.
On to `Oc1cc2c(cc1O)C(c1ccccc1)CNCC2` (stereo not drawn) [SKF 38393], for which the food intake entry in the assay on rats is on record as “decrease food intake”.
`CC(C)C[C@H]1C(=O)N2CCC[C@H]2[C@]2(O)O[C@](NC(=O)[C@@H]3C=C4c5cccc6[nH]c(Br)c(c56)C[C@H]4N(C)C3)(C(C)C)C(=O)N12` [bromocryptine]: the “effect on L-DOPA requirement” value with Parkinson's Disease is “lowers the amount of L-DOPA required to achieve the maximal therapeutic response”.
